Assay results from patent publication US10414779B2, “Fused [1,2]imidazo[4,5-C] ring compounds substituted with guanidino groups” (3M INNOVATIVE PROPERTIES COMPANY, priority 2016, dated 2019).
Where a name gives a salt, the structure may show the parent alone.

Legend:
[1] = tested on: Human peripheral blood mononuclear cells (PBMC); experiment: Cytokine induction in human cells (PBMC), IFN-alpha by ELISA; format: cell-based; conditions: 21-24 hrs, lowest concentration inducing cytokine at least 2× negative control, tested at 10, 1, 0.1, 0.01, 0.001, 0.0001 micromolar
Method: (§1) Cytokine Induction in Human Cells
(§2) Whole blood was obtained from healthy human donors and collected by venipuncture into vacutainer tubes or syringes containing EDTA. Human peripheral blood mononuclear cells (PBMC) were purified from the whole blood by density gradient centrifugation. Histopaque 1077 (15 mL, Sigma, St. Louis, Mo.) was transferred to 6×50 mL sterile polypropylene conical tubes. The Histopaque was overlayed with 15-25 mL of blood diluted 1:2 in Hank's Balanced Salts Solution (HBSS) (Gibco, Life Technology, Grand Island N.Y.). The tubes were then centrifuged at 1370 rpm for 30 minutes at 20° C., with no brake (400×g, GH 3.8A Rotor).
(§3) The interface (buffy coat) containing the PBMC was collected and placed in a new sterile 50 mL conical polypropylene centrifuge tube. […]
(§4) The number of viable cells were determined by counting with a Miltenyi FACS instrument (Miltenyi Biotec Inc., San Diego, Calif.) or by using a hemacytometer. […] Ten microliters of the diluted cells were then applied to the hemacytometer, and the number of viable PBMC were determined by microscopy. […]
(§5) IFN-alpha cytokine levels (pg/mL) were measured by ELISA (human IFN-α, pan specific, Mabtech, Cinncinnati, Ohio), IFN-gamma, TNF-alpha, and IP-10 cytokine levels (pg/mL) were measured by multiplex bead assay (magnetic beads, R & D Systems Minneapolis, Minn.) according to the manufacturer's instructions. […]

[2] = tested on: Human peripheral blood mononuclear cells (PBMC); experiment: Cytokine induction in human cells (PBMC), IFN-gamma by multiplex bead assay; format: cell-based; conditions: 21-24 hrs, lowest concentration inducing cytokine at least 2× negative control, tested at 10, 1, 0.1, 0.01, 0.001, 0.0001 micromolar
Method: as §1, §2, §3, §4, §5

## N=C(N)NCCC[C@H]1COCc2nc3c(N)nc4ccccc4c3n21 [Example 1, (11S)-1-{3-[6-amino-10,11-dihydro-8H-[1,4]oxazino[4′,3′:1,2]imidazo[4,5-c]quinolin-11-yl]propyl}guanidine dihydrochloride]
[1]
  MEC to Induce Cytokine IFN-alpha: 1.0 µM
[2]
  MEC to Induce Cytokine IFN-gamma: 1.0 µM
